The source of these data is US20080234333A1, “Novel Hydroxamic Acid Derivative as Peptide Deformylase Inhibitor and Manufacturing Method Thereof” (priority 2005, published 2008).

Data set [1] deals with Streptococcus agalactiae. Kind of data set: MIC, microdilution method in 96-well plates. To be noted: read-out: MIC Streptococcus agalactiae. The class given is cell-based. On the procedure: (§1) Minimum inhibitory concentrations (MICs) were determined using the microdilution method in 96-well format plates. Each of the compounds of Examples was dissolved in dimethyl sulfoxide to a concentration of 2 mg/mL and stored at 4° C. until used. They were diluted in Mueller-Hinton Broth (MHB) and used for MIC determination. The range of concentrations tested was […] final concentration using a two-fold dilution system. Plates were incubated at 37° C. and MIC were recorded after 24 hours of incubation for bacteria.
(§2) Linezolid and vancomycin were used as standard antibiotics, respectively.
Background: Broth dilution looks for growth in wells or tubes with falling amounts of substance.

Data set [2] concerns Streptococcus pneumoniae. Kind of data set: MIC, microdilution method in 96-well plates. The class given is cell-based. To be noted: read-out: MIC Streptococcus pneumoniae. On the procedure: as §1, §2
Data set [3] concerns Methicillin-resistant Staphylococcus aureus. Nature of the data set: MIC, microdilution method in 96-well plates. To be noted: read-out: MIC Methicillin-resistant Staphylococcus aureus. The class given is cell-based. Here is the method:
as §1, §2

Data set [4] has as its system Streptococcus pyogenes. Nature of the data set: MIC, microdilution method in 96-well plates. The conditions noted are these: read-out: MIC Streptococcus pyogenes. The class given is cell-based. On the procedure:
as §1, §2

For data set [5], the system named is Vancomycin-resistant Enterococcus faecalis. Nature of the data set: MIC, microdilution method in 96-well plates. The class given is cell-based. The conditions noted are these: read-out: MIC Vancomycin-resistant Enterococcus faecalis. Here is the method: as §1, §2
Data set [6] is described as follows: Acute toxicity study in mice. The conditions noted are these: male, mouse, in vivo, 4000 mg/kg; ICR mice (♂, 4 weeks), oral 4,000 mg/kg dose, observed for 14 days. On the procedure:
The acute toxicity of the compounds of Example 7, 13, 18 and 47 were tested using several groups of ICR mice each of 6 mice.

Where [7] appears, read: Mueller-Hinton Broth, 37° C., 24 hours of incubation.

≈ marks a conversion by molar mass, not a printed value. Read-outs that look alike come from different tables or passages of the source.

The term MIC denotes the lowest concentration found to suppress growth. On to `CC(C)(C)[C@H](NC(=O)[C@H](CC1CCCC1)CN(O)C=O)C(=O)N1CCC(NC(=O)c2ccc(C#N)cc2)CC1` [Example 29, 4-Cyano-N-(1-{(S)-2-[(R)-2-cyclopentylmethyl-3-(formyl-hydroxy-amino)-propionylamino]-3,3-dimethyl-butyryl}-piperidin-4-yl)benzamide], for which the MIC in data set [1] (setting [7]) is 0.1 µg/mL (≈ 0.185 µM); in data set [2] (setting [7]), 1.6 µg/mL (≈ 2.96 µM); in data set [3] (setting [7]), 3.1 µg/mL (≈ 5.74 µM); in data set [4] (setting [7]), 0.1 µg/mL (≈ 0.185 µM); in data set [5] (setting [7]), 3.1 µg/mL (≈ 5.74 µM).

On to `Cc1ccc(C(=O)NC2CCN(C(=O)[C@@H](NC(=O)[C@@H](CC(=O)NO)CC3CCCC3)C(C)(C)C)CC2)cc1` [Example 20, (R)-2-Cyclopentylmethyl-N^1-{(S)-2,2-dimethyl-1-[4-(4-methyl-benzoylamino)-piperidine-1-carbonyl]-propyl}-N^4-hydroxy-succinamide], for which the MIC is 0.4 µg/mL (≈ 0.757 µM) in data set [1] (setting [7]); 0.8 µg/mL (≈ 1.51 µM) in data set [2] (setting [7]); 25 µg/mL (≈ 47.3 µM) in data set [3] (setting [7]); 0.4 µg/mL (≈ 0.757 µM) in data set [4] (setting [7]); 12.5 µg/mL (≈ 23.6 µM) in data set [5] (setting [7]).

For orientation: LD50 means the dose expected to kill half of the subjects tested. A low value points to greater toxicity. Compound `CC(C)C[C@H](CC(=O)NO)C(=O)N[C@H](C(=O)N1CCC(NC(=O)Cc2ccccc2)CC1)C(C)(C)C` [Example 7, (R)-N^1-[(S)-2,2-Dimethyl-1-(4-phenylacetylamino-piperidine-1-carbonyl)-propyl]-N^4-hydroxy-2-isobutyl-succinamide] returned an LD50 at 14 days in data set [6] above 4000 mg/kg.

Regarding `CC(C)(C)[C@H](NC(=O)[C@H](CC1CCCC1)CN(O)C=O)C(=O)N1CCC(NC(=O)c2ccc(C(F)(F)F)cc2)CC1` [Example 28, N-(1-{(S)-2-[(R)-2-Cyclopentylmethyl-3-(formyl-hydroxy-amino)-propionylamino]-3,3-dimethyl-4-butyryl}-piperidin-4-yl)-4-trifluoromethyl-benzamide], the MIC in data set [1] (setting [7]) turned out to be 0.1 µg/mL (≈ 0.172 µM); in data set [2] (setting [7]), 1.6 µg/mL (≈ 2.75 µM); in data set [3] (setting [7]), 3.1 µg/mL (≈ 5.32 µM); in data set [4] (setting [7]), 3.1 µg/mL (≈ 5.32 µM); in data set [5] (setting [7]) it was 6.3 µg/mL (≈ 10.8 µM).

`CC(C)(C)[C@H](NC(=O)[C@H](CC1CCCC1)CN(O)C=O)C(=O)N1CCC(NC(=O)c2cc(F)c(F)cc2F)CC1` [Example 44, N-(1-{(S)-2-[(R)-2-Cyclopentylmethyl-3-(formyl-hydroxy-amino)-propionylamino]-3,3-dimethyl-butyryl}-piperidin-4-yl)-2,4,5-trifluoro-benzamide]: the MIC in data set [1] (setting [7]) is 0.2 µg/mL (≈ 0.352 µM); in data set [2] (setting [7]), 1.6 µg/mL (≈ 2.81 µM); in data set [3] (setting [7]) it was 3.1 µg/mL (≈ 5.45 µM); in data set [4] (setting [7]), 0.2 µg/mL (≈ 0.352 µM); in data set [5] (setting [7]), 3.1 µg/mL (≈ 5.45 µM).

Take `COc1ccc(C(=O)NC2CCN(C(=O)[C@@H](NC(=O)[C@H](CC3CCCC3)CN(O)C=O)C(C)(C)C)CC2)cc1` [Example 39, N-(1-{(S)-2-[(R)-2-Cyclopentylmethyl-3-(formyl-hydroxy-amino)-propionylamino]-3,3-dimethyl-butyryl}-piperidin-4-yl)-4-methoxy-benzamide]: the MIC in data set [1] (setting [7]) amounted to 0.2 µg/mL (≈ 0.367 µM); in data set [2] (setting [7]) it was 3.1 µg/mL (≈ 5.69 µM); in data set [3] (setting [7]), 12.5 µg/mL (≈ 22.9 µM); in data set [4] (setting [7]), 0.2 µg/mL (≈ 0.367 µM); in data set [5] (setting [7]), 6.3 µg/mL (≈ 11.6 µM).

In the case of `CC(=O)NC[C@H]1CN(c2ccc(N3CCOCC3)c(F)c2)C(=O)O1` [Linezolid, reference compound], the MIC is 1.6 µg/mL (≈ 4.74 µM) in data set [1] (setting [7]); 0.8 µg/mL (≈ 2.37 µM) in data set [2] (setting [7]); 1.6 µg/mL (≈ 4.74 µM) in data set [3] (setting [7]); 0.8 µg/mL (≈ 2.37 µM) in data set [4] (setting [7]); 0.8 µg/mL (≈ 2.37 µM) in data set [5] (setting [7]).

As to `CC(C)(C)[C@H](NC(=O)[C@H](CC1CCCC1)CN(O)C=O)C(=O)N1CCC(NS(=O)(=O)c2ccc(C(F)(F)F)cc2)CC1` [Example 50, (R)-2-Cyclopentylmethyl-N-{(S)-2,2-dimethyl-1-[4-(4-trifluoromethyl-benzenesulfonylamino)-piperidine-1-carbonyl]-propyl}-3-(formyl-hydroxy-amino)-propionamide], the MIC in data set [1] (setting [7]) was 0.4 µg/mL (≈ 0.646 µM); in data set [2] (setting [7]), 1.6 µg/mL (≈ 2.59 µM); in data set [3] (setting [7]), 6.3 µg/mL (≈ 10.2 µM); in data set [4] (setting [7]), 0.4 µg/mL (≈ 0.646 µM); in data set [5] (setting [7]), 3.1 µg/mL (≈ 5.01 µM).

In the case of `CC(C)(C)[C@H](NC(=O)[C@@H](CC(=O)NO)CC1CCCC1)C(=O)N1CCC(NC(=O)c2ccccc2)CC1` [Example 8, (R)-N^1-[(S)-1-(4-Benzoylamino-piperidine-1-carbonyl)-2,2-dimethyl-propyl]-2-cyclopentylmethyl-N^4-hydroxy-succinamide], the MIC came out at 1.6 µg/mL (≈ 3.11 µM) in data set [1] (setting [7]); 6.3 µg/mL (≈ 12.2 µM) in data set [2] (setting [7]); 12.5 µg/mL (≈ 24.3 µM) in data set [3] (setting [7]); 1.6 µg/mL (≈ 3.11 µM) in data set [4] (setting [7]); 25 µg/mL (≈ 48.6 µM) in data set [5] (setting [7]).

With `CN[C@H](CC(C)C)C(=O)N[C@H]1C(=O)N[C@@H](CC(N)=O)C(=O)N[C@H]2C(=O)N[C@H]3C(=O)N[C@H](C(=O)N[C@H](C(=O)O)c4cc(O)cc(O)c4-c4cc3ccc4O)[C@H](O)c3ccc(c(Cl)c3)Oc3cc2cc(c3O[C@@H]2O[C@H](CO)[C@@H](O)[C@H](O)[C@H]2O[C@H]2C[C@](C)(N)[C@H](O)[C@H](C)O2)Oc2ccc(cc2Cl)[C@H]1O` [Vancomycin, reference compound], the MIC in data set [1] (24 h) was 1.6 µg/mL (≈ 1.1 µM); in data set [2] (24 h), 0.8 µg/mL (≈ 0.552 µM); in data set [3] (24 h), 3.1 µg/mL (≈ 2.14 µM); in data set [4] (24 h), 0.8 µg/mL (≈ 0.552 µM); in data set [5] (24 h), above 100 µg/mL.

Consider `CC(C)(C)[C@H](NC(=O)[C@@H](CC(=O)NO)CC1CCCC1)C(=O)N1CCC(NC(=O)c2ccc(F)cc2)CC1` [Example 15, (R)-2-Cyclopentylmethyl-N^1-{(S)-1-[4-(4-fluoro-benzoylamino)-piperidine-1-carbonyl]-2,2-dimethyl-propyl}-N^4-hydroxy-succinamide], for which the MIC was found to be 0.2 µg/mL (≈ 0.375 µM) in data set [1] (setting [7]); 6.3 µg/mL (≈ 11.8 µM) in data set [2] (setting [7]); 6.3 µg/mL (≈ 11.8 µM) in data set [3] (setting [7]); 0.2 µg/mL (≈ 0.375 µM) in data set [4] (setting [7]); 6.3 µg/mL (≈ 11.8 µM) in data set [5] (setting [7]).

`CC(C)(C)[C@H](NC(=O)[C@H](CC1CCCC1)CN(O)C=O)C(=O)N1CCC(NC(=O)c2ccc(F)cc2)CC1` [Example 30, N-(1-{(S)-2-[(R)-2-Cyclopentylmethyl-3-(formyl-hydroxy-amino)-propionylamino]-3,3-dimethyl-butyryl}-piperidin-4-yl)-4-fluoro-benzamide]: the minimal inhibitory concentration (MIC) was 0.2 µg/mL (≈ 0.375 µM) in data set [1] (setting [7]); 1.6 µg/mL (≈ 3 µM) in data set [2] (setting [7]); 6.3 µg/mL (≈ 11.8 µM) in data set [3] (setting [7]); 0.2 µg/mL (≈ 0.375 µM) in data set [4] (setting [7]); 6.3 µg/mL (≈ 11.8 µM) in data set [5] (setting [7]).

Consider `CC(C)(C)[C@H](NC(=O)[C@H](CC1CCCC1)CN(O)C=O)C(=O)N1CCC(NC(=O)c2ccccc2)CC1` [Example 25, N-(1-{(S)-2-[(R)-2-Cyclopentylmethyl-3-(formyl-hydroxy-amino)-propionylamino]-3,3dimethyl-butyryl}-piperidin-4-yl)-benzamide], for which the MIC in data set [1] (setting [7]) was determined as 0.1 µg/mL (≈ 0.194 µM); in data set [2] (setting [7]), 6.3 µg/mL (≈ 12.2 µM); in data set [3] (setting [7]), 12.5 µg/mL (≈ 24.3 µM); in data set [4] (setting [7]) it was 0.4 µg/mL (≈ 0.777 µM); in data set [5] (setting [7]), 6.3 µg/mL (≈ 12.2 µM).

`CC(C)[C@H](NC(=O)[C@H](CC1CCCC1)CN(O)C=O)C(=O)N1CCC(NC(=O)c2ccc(C#N)cc2)CC1` [Example 41, 4-Cyano-N-(1-{(S)-2-[(R)-2-cyclopentylmethyl-3-(formyl-hydroxy-amino)-propionylamino]-3-methyl-butyryl}-piperidin-4-yl)benzamide]: the MIC in data set [1] (setting [7]) worked out at 0.4 µg/mL (≈ 0.761 µM); in data set [2] (setting [7]), 1.6 µg/mL (≈ 3.04 µM); in data set [3] (setting [7]), 6.3 µg/mL (≈ 12 µM); in data set [4] (setting [7]), 0.4 µg/mL (≈ 0.761 µM); in data set [5] (setting [7]), 3.1 µg/mL (≈ 5.9 µM).

On to `CC(C)(C)[C@H](NC(=O)[C@H](CC1CCCC1)CN(O)C=O)C(=O)N1CCC(NC(=O)Nc2ccc(C(F)(F)F)cc2)CC1` [Example 48, (R)-2-Cyclopentylmethyl-N-((S)-2,2-dimethyl-1-{4-[3-(4-trifluoromethyl-phenyl)-ureido)-piperidine-1-carbonyl}-propyl)-3-(formyl-hydroxy-amino)-propionamide], for which the MIC was determined as 0.2 µg/mL (≈ 0.335 µM) in data set [1] (setting [7]); 1.6 µg/mL (≈ 2.68 µM) in data set [2] (setting [7]); 6.3 µg/mL (≈ 10.5 µM) in data set [3] (setting [7]); 0.2 µg/mL (≈ 0.335 µM) in data set [4] (setting [7]); 3.1 µg/mL (≈ 5.19 µM) in data set [5] (setting [7]).

In the case of `CC(C)(C)[C@H](NC(=O)[C@@H](CC(=O)NO)CC1CCCC1)C(=O)N1CCC(NC(=O)Cc2ccccc2)CC1` [Example 10, (R)-2-Cyclopentylmethyl-N^1-[(S)-2,2-dimethyl-1-(4-phenylacetylamino-piperidine-1-carbonyl)-propyl]-N^4-hydroxy-succinamide], the MIC was found to be 0.2 µg/mL (≈ 0.378 µM) in data set [1] (setting [7]); 50 µg/mL (≈ 94.6 µM) in data set [2] (setting [7]); 50 µg/mL (≈ 94.6 µM) in data set [3] (setting [7]); 0.8 µg/mL (≈ 1.51 µM) in data set [4] (setting [7]); 50 µg/mL (≈ 94.6 µM) in data set [5] (setting [7]).

`Cc1ccc(C(=O)NC2CCN(C(=O)[C@@H](NC(=O)[C@H](CC3CCCC3)CN(O)C=O)C(C)(C)C)CC2)cc1` [Example 38, N-(1-[(S)-2-[(R)-2-Cyclopentylmethyl-3-(formyl-hydroxy-amino)-propionylamino]-3,3-dimethyl-butyryl}-piperidin-4-yl)-4-methyl-benzamide]: the minimal inhibitory concentration (MIC) came to 0.1 µg/mL (≈ 0.189 µM) in data set [1] (setting [7]); 1.6 µg/mL (≈ 3.03 µM) in data set [2] (setting [7]); 6.3 µg/mL (≈ 11.9 µM) in data set [3] (setting [7]); 3.1 µg/mL (≈ 5.86 µM) in data set [4] (setting [7]); 3.1 µg/mL (≈ 5.86 µM) in data set [5] (setting [7]).
